# Results: ChEMBL document CHEMBL4177728, “Protective effects of 6-ureido/thioureido-2,4,5-trimethylpyridin-3-ols against 4-hydroxynonenal-induced cell death in adult retinal pigment epithelial-19 cells” (2018)
# How the values were obtained:
# [1] = molecular target: T1, NADPH oxidase 4 (Homo sapiens) (UniProt Q9NPH5); experiment: (§1) Inhibition of NOX4 in human ARPE19 cells assessed as protection against 4-HNE-induced cell death by measuring cell viability recovery at 10 uM incubated for 24 hrs by MTT assay; assay type: cell-based
# T1 sequence (whole entry): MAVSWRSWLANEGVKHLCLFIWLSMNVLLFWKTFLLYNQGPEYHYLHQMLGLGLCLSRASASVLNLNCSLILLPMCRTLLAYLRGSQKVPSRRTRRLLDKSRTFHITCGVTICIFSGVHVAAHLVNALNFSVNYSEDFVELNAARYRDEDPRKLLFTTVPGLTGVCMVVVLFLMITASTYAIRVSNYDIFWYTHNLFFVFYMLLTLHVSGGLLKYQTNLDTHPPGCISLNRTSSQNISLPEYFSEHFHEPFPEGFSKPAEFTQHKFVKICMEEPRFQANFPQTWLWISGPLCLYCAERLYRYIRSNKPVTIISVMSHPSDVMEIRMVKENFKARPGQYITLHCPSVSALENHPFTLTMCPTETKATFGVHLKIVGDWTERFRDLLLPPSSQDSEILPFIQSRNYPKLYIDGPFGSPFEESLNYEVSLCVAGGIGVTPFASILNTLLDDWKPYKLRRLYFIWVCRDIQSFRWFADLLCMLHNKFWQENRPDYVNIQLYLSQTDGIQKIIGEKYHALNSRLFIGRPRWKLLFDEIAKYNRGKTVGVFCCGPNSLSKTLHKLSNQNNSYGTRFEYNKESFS
# [2] = molecular target: T1, NADPH oxidase 4 (Homo sapiens); experiment: (§2) Inhibition of NOX4 in human ARPE19 cells assessed as suppression of 4-HNE-induced superoxide production at 10 uM pre-incubated for 1 hr before 4-HNE addition for 1 hr by lucigenin chemiluminescence assay; assay type: cell-based
# [3] = Antioxidant activity assessed as DPPH radical scavenging activity at 10 uM by spectrphotomery; assay type: functional
# [4] = molecular target: T1, NADPH oxidase 4 (Homo sapiens); experiment: Inhibition of NOX4 in human ARPE19 cells assessed as protection against 4-HNE-induced cell death by measuring cell viability recovery incubated for 24 hrs by MTT assay; assay type: cell-based
# [5] = test system: ARPE-19; experiment: Suppression of 4-HNE-induced apoptosis in human ARPE19 cells assessed as viable cells level at 5 uM incubated for 24 hrs by FITC Annexin V and propidium iodide staining based flow cytometry (reference value: 59.1%); assay type: functional
# [6] = test system: ARPE-19; experiment: Suppression of 4-HNE-induced apoptosis in human ARPE19 cells assessed as early apoptosis cells level at 5 uM incubated for 24 hrs by FITC Annexin V and propidium iodide staining based flow cytometry (reference value: 17.6%); assay type: functional
# [7] = test system: ARPE-19; experiment: Suppression of 4-HNE-induced apoptosis in human ARPE19 cells assessed as late apoptosis cells level at 5 uM incubated for 24 hrs by FITC Annexin V and propidium iodide staining based flow cytometry (reference value: 23%); assay type: functional
# [8] = test system: ARPE-19; experiment: Suppression of 4-HNE-induced apoptosis in human ARPE19 cells assessed as necrosis cells level at 5 uM incubated for 24 hrs by FITC Annexin V and propidium iodide staining based flow cytometry (reference value: 0.342%); assay type: functional
# [9] = test system: ARPE-19; experiment: Suppression of 4-HNE-induced apoptosis in human ARPE19 cells assessed as viable cells level at 10 uM incubated for 24 hrs by FITC Annexin V and propidium iodide staining based flow cytometry (reference value: 59.1%); assay type: functional
# [10] = test system: ARPE-19; experiment: Suppression of 4-HNE-induced apoptosis in human ARPE19 cells assessed as early apoptosis cells level at 10 uM incubated for 24 hrs by FITC Annexin V and propidium iodide staining based flow cytometry (reference value: 17.6%); assay type: functional
# [11] = test system: ARPE-19; experiment: Suppression of 4-HNE-induced apoptosis in human ARPE19 cells assessed as late apoptosis cells level at 10 uM incubated for 24 hrs by FITC Annexin V and propidium iodide staining based flow cytometry (reference value: 23%); assay type: functional
# [12] = test system: ARPE-19; experiment: Suppression of 4-HNE-induced apoptosis in human ARPE19 cells assessed as necrosis cells level at 10 uM incubated for 24 hrs by FITC Annexin V and propidium iodide staining based flow cytometry (reference value: 0.342%); assay type: functional
# [13] = test system: ARPE-19; experiment: Suppression of 4-HNE-induced apoptosis in human ARPE19 cells assessed as viable cells level at 20 uM incubated for 24 hrs by FITC Annexin V and propidium iodide staining based flow cytometry (reference value: 59.1%); assay type: functional
# [14] = test system: ARPE-19; experiment: Suppression of 4-HNE-induced apoptosis in human ARPE19 cells assessed as early apoptosis cells level at 20 uM incubated for 24 hrs by FITC Annexin V and propidium iodide staining based flow cytometry (reference value: 17.6%); assay type: functional
# [15] = test system: ARPE-19; experiment: Suppression of 4-HNE-induced apoptosis in human ARPE19 cells assessed as late apoptosis cells level at 20 uM incubated for 24 hrs by FITC Annexin V and propidium iodide staining based flow cytometry (reference value: 23%); assay type: functional
# [16] = test system: ARPE-19; experiment: Suppression of 4-HNE-induced apoptosis in human ARPE19 cells assessed as necrosis cells level at 20 uM incubated for 24 hrs by FITC Annexin V and propidium iodide staining based flow cytometry (reference value: 0.342%); assay type: functional
# [17] = molecular target: NADPH oxidase 4 (Homo sapiens) (UniProt Q9NPH5); experiment: as §1; assay type: cell-based; remark: listed apart in the source
# [18] = molecular target: NADPH oxidase 4 (Homo sapiens) (UniProt Q9NPH5); experiment: as §2; assay type: cell-based; remark: listed apart in the source
Molecule,Activity [1],inhibition [2],Activity [3],further results
CCCCNC(=S)Nc1nc(C)c(O)c(C)c1C,85.1%,79.5%,5.9%,inhibition [4]: Dose-dependent effect; Activity [5]: 88.6%; Activity [6]: 6.84%; Activity [7]: 4.24%; Activity [8]: 0.335%; Activity [9]: 93.4%; Activity [10]: 3.06%; Activity [11]: 3.38%; Activity [12]: 0.134%; Activity [13]: 99.7%; Activity [14]: 0.112%; Activity [15]: 0.079%; Activity [16]: 0.067%
CCCCCCCCNC(=S)Nc1nc(C)c(O)c(C)c1C,45.9%,40.7%,14.6%,–
Cc1nc(NC(=S)Nc2cccc(C(F)(F)F)c2)c(C)c(C)c1O,29.6%,20.1%,7.6%,–
Cc1nc(NC(=O)NCc2ccccc2)c(C)c(C)c1O,10.5%,4.6%,6%,–
Cc1nc(NC(=O)Nc2ccc(OC(F)(F)F)cc2)c(C)c(C)c1O,58.4%,51.1%,6.1%,–
O=C1O[C@H]([C@@H](O)CO)C(O)=C1O,8.2%,3.4%,10.2%,–
Cc1nc(NC(=O)Nc2ccc([N+](=O)[O-])cc2)c(C)c(C)c1O,13.9%,8.3%,5.2%,–
Cc1ccc(NC(=S)Nc2nc(C)c(O)c(C)c2C)cc1,54%,41.3%,6.9%,–
Cc1nc(NC(=O)NC(=O)c2ccccc2)c(C)c(C)c1O,1.5%,8.8%,6.7%,–
Cc1nc(NC(=O)Nc2ccc(F)cc2)c(C)c(C)c1O,6.2%,6.9%,7.4%,–
Cc1nc(NC(=O)Nc2ccc(Br)cc2)c(C)c(C)c1O,7.3%,0.9%,4%,–
Cc1nc(NC(=S)NC(C)C)c(C)c(C)c1O,14.7%,13.9%,5.5%,–
CCCCCCNC(=S)Nc1nc(C)c(O)c(C)c1C,22.8%,17.9%,16.5%,–
Cc1nc(NC(=O)Nc2ccc(C(C)C)cc2)c(C)c(C)c1O,-5.1%,-1.3%,4.2%,–
Cc1ccc(S(=O)(=O)NC(=O)Nc2nc(C)c(O)c(C)c2C)cc1,32.5%,28.6%,5.7%,–
Cc1ccc(NC(=O)Nc2nc(C)c(O)c(C)c2C)cc1,5.3%,6.2%,3.4%,–
Cc1nc(NC(=S)Nc2ccc(Cl)cc2)c(C)c(C)c1O,12.8%,13%,6.5%,–
Cc1nc(NC(=O)Nc2cccc3ccccc23)c(C)c(C)c1O,7.3%,2.4%,6.3%,–

Molecule,Activity [1],inhibition [2],Activity [3],further results
Cc1nc(NC(=O)Nc2ccccc2)c(C)c(C)c1O,8.9%,7.1%,5.8%,–
COc1ccc(NC(=S)Nc2nc(C)c(O)c(C)c2C)cc1,23.2%,17.7%,4.7%,–
Cc1nc(NC(=S)NC(=O)c2ccccc2)c(C)c(C)c1O,63.1%,68.7%,4.9%,–
Cc1nc(NC(=S)Nc2ccc([N+](=O)[O-])cc2)c(C)c(C)c1O,77.7%,71.8%,5.5%,inhibition [4]: Dose-dependent effect
VITAMIN E,–,–,10.2%,Activity [17]: 9.8%; inhibition [18]: 3.9%
c1ccc(Cn2nnc3c(Sc4nc5ccccc5o4)ncnc32)cc1,79.4%,78.7%,6.9%,Activity [5]: 80.4%; Activity [6]: 11.8%; Activity [7]: 7.66%; Activity [8]: 0.25%; Activity [9]: 89.8%; Activity [10]: 5.62%; Activity [11]: 4.42%; Activity [12]: 0.254%; Activity [13]: 95.2%; Activity [14]: 2.87%; Activity [15]: 1.81%; Activity [16]: 0.145%
Cc1nc(NC(=S)Nc2ccc(C(F)(F)F)cc2)c(C)c(C)c1O,40.4%,30.5%,6.7%,–
Cc1nc(NC(=S)Nc2ccc(Br)cc2)c(C)c(C)c1O,33.5%,22.8%,7.4%,–
Cc1nc(NC(=S)Nc2ccccc2)c(C)c(C)c1O,8.9%,2.3%,5.6%,–
Cc1nc(NC(=S)Nc2ccc(Cl)c(Cl)c2)c(C)c(C)c1O,24.9%,19%,6.6%,–
Cc1nc(NC(=O)Nc2ccc(Cl)cc2)c(C)c(C)c1O,43.6%,30.8%,6.2%,–
CCCNC(=O)Nc1nc(C)c(O)c(C)c1C,12.5%,9.4%,5.5%,–
Cc1nc(NC(=O)Nc2ccc(C(F)(F)F)cc2)c(C)c(C)c1O,44.2%,41.3%,5.9%,–
COc1ccc(NC(=O)Nc2nc(C)c(O)c(C)c2C)cc1,10.8%,5.8%,7.4%,–
CCNC(=S)Nc1nc(C)c(O)c(C)c1C,44.9%,36.7%,13.3%,–
Cc1nc(NC(=S)NC2CCCCC2)c(C)c(C)c1O,62.2%,61.9%,7.1%,–
Cc1cccc(C(C)(C)C)c1NC(=O)Nc1nc(C)c(O)c(C)c1C,12.8%,8.9%,3.3%,–
